According to US20260216238A1, “TETRATHIOMOLYBDIC ACID FOR USE IN TREATING COPPER METABOLISM-ASSOCIATED DISEASES OR DISORDERS (WILSON DISEASE)” (Alexion Pharmaceuticals, Inc., priority 2023, published 2026):

System: patients with Wilson disease (WD)
Test: UWDRS Part III total score, functional subscale and individual items (neurological examination)
Type: in vivo, human
Conditions: for UWDRS Part III Functional Subscale (0-10) change from baseline, Mean (SD) / UWDRS Part III (0-175) change from baseline, Mean (SD): pooled Studies 301 and 201
Experimental: The UWDRS scoring system was developed specifically for the motor and movement disorders associated with chronic copper neurotoxicity in WD. Some individual items/subscales of the UWDRS Part III (arising from a chair, gait, handwriting, and speech) in addition to the UWDRS Parts I, II, and III overall, were assessed to further define the range of burdensome signs and symptoms of WD, so as to further understand the assessment of treatment effects on patients with WD. The UWDRS scores for consciousness (Part I) and abnormal neurologic examination findings (Part III) will be determined by a trained neurologist rater who is blinded to study treatment randomization. These scores were used to provide a rigorous dataset for evaluating changes from baseline.
Unified Wilson Disease Rating Scale (Parts I, II, and III): The UWDRS is a clinical rating scale designed to evaluate the neurological manifestations of WD that generally can be divided into 3 movement disorder syndromes: dystonic, ataxic, and Parkinsonian syndrome. The UWDRS comprises 3 parts: UWDRS Part I (level of consciousness, item 1), UWDRS Part II (a patient-reported review of daily activity items [disability], items 2 to 11), and UWDRS Part III (a detailed neurological examination, items 12 to 34).
The UWDRS Part I and Part III were assessed by a neurologist who is blinded to the treatment randomization, while UWDRS Part II may be reported to a non-blinded member of the study team by the patient, family member, or caregiver. The UWDRS has not been formally evaluated in adolescents. However, the components of Part I (level of consciousness), Part II (patient or caregiver-reported disability) and Part III (neurologic examination findings) were not fundamentally different between adults and adolescents. Patients aged 12 years and older were expected to be able to comply with UWDRS assessments.
Pooled results from all such participants will be integrated together into one timeline to allow analyses of changes in UWDRS, long-term copper control, and long-term safety laboratory data.
Endpoints (directly measured non-ceruloplasmin-bound copper [dNCC], UWDRS III (rater blinded) total and individual item scores, Clinical Global Impression-Improvement [CGI-I]) were evaluated at baseline (BL) and Week 48 (W48). Normalization (score decrease to 0), improvement (≥1 point decrease), stability (no change), or worsening (≥1 point increase) of total and individual UWDRS III item scores were evaluated at W48.

[1] = Week 24, Cohort 1, Study 201, n=8
[2] = Week 24, Cohort 1, Study 301, TTM n=90, SoC n=47
[3] = Week 24, Cohort 1, Total (Studies 301, 201, 205), n=98
[4] = Week 24, Study 301 TTM long term set
[5] = Week 48, Cohort 1, Study 201, n=9
[6] = Week 48, Cohort 1, Study 205, n=27
[7] = Week 48, Cohort 1, Study 301, TTM n=91, SoC n=49
[8] = Week 48, Cohort 1, Total (Studies 301, 201, 205), n=127

## bis-choline tetrathiomolybdate [TTM]
TTM exposure 144 weeks
  UWDRS Part III Functional Subscale (0-10) change from baseline, Mean (SD): −1.042 (1.7227)
TTM exposure 168 weeks, N=18
  UWDRS-III change from baseline, Mean (SD): −18.08 (19.127)
TTM exposure 168 weeks
  UWDRS Part III (0-175) change from baseline, Mean (SD): −18.08 (19.127)
  UWDRS Part III Functional Subscale (0-10) change from baseline, Mean (SD): −1.841 (2.1818)
TTM exposure 192 weeks, N=19
  UWDRS-III change from baseline, Mean (SD): −12.65 (19.476)
TTM exposure 192 weeks
  UWDRS Part III (0-175) change from baseline, Mean (SD): −12.65 (19.476)
  UWDRS Part III Functional Subscale (0-10) change from baseline, Mean (SD): −1.250 (2.1459)
TTM exposure 216 weeks, N=14
  UWDRS-III change from baseline, Mean (SD): −16.17 (19.323)
TTM exposure 216 weeks
  UWDRS Part III (0-175) change from baseline, Mean (SD): −16.17 (19.323)
  UWDRS Part III Functional Subscale (0-10) change from baseline, Mean (SD): −1.519 (2.3987)
TTM exposure 240 weeks, N=13
  UWDRS-III change from baseline, Mean (SD): −11.48 (16.473)
TTM exposure 240 weeks
  UWDRS Part III (0-175) change from baseline, Mean (SD): −11.48 (16.473)
  UWDRS Part III Functional Subscale (0-10) change from baseline, Mean (SD): −0.898 (1.3384)
TTM exposure 264 weeks, N=13
  UWDRS-III change from baseline, Mean (SD): −14.00 (16.513)
TTM exposure 264 weeks
  UWDRS Part III (0-175) change from baseline, Mean (SD): −14.00 (16.513)
  UWDRS Part III Functional Subscale (0-10) change from baseline, Mean (SD): −0.995 (1.2369)
TTM vs SoC, P 0.4325
  UWDRS Part III-gait (0-10), Difference at 48 weeks, LSM: −0.15
TTM vs SoC, P 0.5077
  UWDRS Part III-handwriting (0-4), Difference at 48 weeks, LSM: −0.1
TTM vs SoC, P 0.6191
  UWDRS Part III functional subscale (0-10), Difference at 48 weeks, LSM: −0.067
TTM vs SoC, P 0.6869
  UWDRS Part III-arising from chair (0-4), Difference at 48 weeks, LSM: 0.0
TTM vs SoC, P 0.7238
  UWDRS Part III-speech (0-4), Difference at 48 weeks, LSM: 0.0
TTM vs SoC, P 0.9441
  UWDRS Part III (0-175), Difference at 48 weeks, LSM: −0.09
W0-W48, cohort 1 incomplete response or intolerant, p=0.7084
  UWDRS III total, LSM difference (SE) TTM versus SoC: −0.53 (1.426)
[1]
  UWDRS-III, Change from Baseline, Max: 1.0
  UWDRS-III, Change from Baseline, Mean: −13.82
  UWDRS-III, Change from Baseline, Median: −13.50
  UWDRS-III, Change from Baseline, Min: −35.0,
  UWDRS-III, Change from Baseline, Q1: −19.80,
  UWDRS-III, Change from Baseline, Q3: −5.00
[2]
  UWDRS-III, Change from Baseline, Max: 13.0
  UWDRS-III, Change from Baseline, Mean: −0.86
  UWDRS-III, Change from Baseline, Median: 0.00
  UWDRS-III, Change from Baseline, Min: −18.7,
  UWDRS-III, Change from Baseline, Q1: −3.00,
  UWDRS-III, Change from Baseline, Q3: 1.00
[3]
  UWDRS-III, Change from Baseline, Max: 13.0
  UWDRS-III, Change from Baseline, Mean: −1.92
  UWDRS-III, Change from Baseline, Median: −1.00
  UWDRS-III, Change from Baseline, Min: −35.0,
  UWDRS-III, Change from Baseline, Q1: −4.00,
  UWDRS-III, Change from Baseline, Q3: 1.00
Week 24, Cohort 1, TTM Total vs SoC Study 301, P-value 0.3884
  UWDRS-III, Change from Baseline, LSM Diff (TTM vs. SoC): −1.00
Week 24, Cohort 1, TTM Total, SoC Study 301
  UWDRS-III, Change from Baseline, LSM: −1.72
[4]
  UWDRS Part III (0-175) change from baseline, LSM: −1.32
  UWDRS Part III (0-175) change from baseline, Mean: −0.74
  UWDRS Part III functional subscale (0-10) change from baseline, LSM: −0.158
  UWDRS Part III functional subscale (0-10) change from baseline, Mean: −0.139
  UWDRS Part III-arising from chair (0-4) change from baseline, LSM: −0.1
  UWDRS Part III-arising from chair (0-4) change from baseline, Mean: 0.0
  UWDRS Part III-gait (0-4) change from baseline, LSM: −0.21
  UWDRS Part III-gait (0-4) change from baseline, Mean: −0.17
  UWDRS Part III-handwriting (0-4) change from baseline, LSM: 0.0
  UWDRS Part III-handwriting (0-4) change from baseline, Mean: −0.1
  UWDRS Part III-speech (0-4) change from baseline, LSM: −0.1
  UWDRS Part III-speech (0-4) change from baseline, Mean: −0.1
[5]
  UWDRS-III, Change from Baseline, Max: 2.0
  UWDRS-III, Change from Baseline, Mean: −19.44
  UWDRS-III, Change from Baseline, Median: −13.00
  UWDRS-III, Change from Baseline, Min: −48.0,
  UWDRS-III, Change from Baseline, Q1: −29.00,
  UWDRS-III, Change from Baseline, Q3: −9.00
[6]
  UWDRS-III, Change from Baseline, Max: 6.0
  UWDRS-III, Change from Baseline, Mean: −2.81
  UWDRS-III, Change from Baseline, Median: −2.00
  UWDRS-III, Change from Baseline, Min: −17.0,
  UWDRS-III, Change from Baseline, Q1: −6.00,
  UWDRS-III, Change from Baseline, Q3: 0.00
[7]
  UWDRS-III, Change from Baseline, Max: 31.0
  UWDRS-III, Change from Baseline, Mean: −2.24
  UWDRS-III, Change from Baseline, Median: −1.00
  UWDRS-III, Change from Baseline, Min: −28.0,
  UWDRS-III, Change from Baseline, Q1: −4.00,
  UWDRS-III, Change from Baseline, Q3: 0.00
[8]
  UWDRS-III, Change from Baseline, Max: 31.0
  UWDRS-III, Change from Baseline, Mean: −3.58
